# Measured values from patent US8471004B2, “Bicyclic compounds” (Hoffman-La Roche Inc., priority 2009, dated 2013).
# Molecular target: T1, human chemokine receptor 2 isoform B (Homo sapiens, UniProt P41597)
# T1 construct: host or cells: CHOK1-CCR2B-A5 (CHO-K1)
# T1 sequence (P41597 1-360 isoform P41597-2): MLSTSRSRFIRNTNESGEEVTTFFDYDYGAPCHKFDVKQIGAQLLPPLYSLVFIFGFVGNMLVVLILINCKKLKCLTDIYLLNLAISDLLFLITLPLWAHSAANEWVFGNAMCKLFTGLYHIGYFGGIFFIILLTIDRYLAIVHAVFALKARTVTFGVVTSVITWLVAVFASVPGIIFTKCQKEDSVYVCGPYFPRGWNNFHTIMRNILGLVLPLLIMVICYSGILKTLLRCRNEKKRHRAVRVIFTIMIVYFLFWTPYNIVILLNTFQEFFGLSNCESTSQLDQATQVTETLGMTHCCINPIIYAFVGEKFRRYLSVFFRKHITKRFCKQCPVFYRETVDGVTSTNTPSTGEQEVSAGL
# Assay: Calcium mobilization assay (CHOK1-CCR2B-A5 cells, FLIPR, MCP-1 stimulated)
# Assay type: cell-based
# Settings: Ca mobilisation assay for CCR2, antagonist activity, 50% inhibition of specific calcium increases after 20 nM MCP-1
# Description: CHOK1-CCR2B-A5 cells (from Euroscreen) stably overexpressing the human chemokine receptor 2 isoform B were cultured in Nutrient Hams F12 medium supplemented with 5% FBS, 100 U/ml penicillin, 100 μg/ml streptomycin, 400 μg/ml G418 and 5 μg/ml puromycin.
# For the assay cells were grown overnight in 384-well black clear flat bottom polystyrene plates (Costar) at 37° C. at 5% CO2. After washing with DMEM, 20 mM Hepes, 2.5 mM probenecid, 0.1% BSA (DMEM assay buffer) cells were loaded with 4 μM Fluo-4 in the same DMEM assay buffer for 2 hours at 30° C. Excess dye was removed and cells were washed with DMEM assay buffer. 384-well compound plates were prepared with DMEM assay buffer/0.5% DMSO with or without various concentrations of test compounds. Usually compounds were tested for agonist and antagonist activity.
# Test compounds were added to the assay plate and agonist activity was monitored as fluorescence for 80 seconds with a FLIPR (488 nm excitation; 510-570 nm emission; Molecular Devices). After 20-30 min. of incubation at 30° C., 20 nM MCP-1 (R&D; Roche) was added and fluorescence was monitored again for 80 seconds. Increases in intracellular calcium are reported as maximum fluorescence after agonist exposure minus basal fluorescence before exposure. Antagonist activity is indicated as inhibitor concentration required for 50% inhibition of specific calcium increases.
row,Structure (SMILES),IC50
1,"C[C@H]1C(=O)N2[C@@H](CCCN3CCC(F)(F)C3)CC[C@H]2CN1C(=O)Nc1ccc(Cl)c(Cl)c1 [Example 45, (3S,6S,8aS)-6-[3-(3,3-Difluoro-pyrrolidin-1-yl)-propyl]-3-methyl-4-oxo-hexahydro-pyrrolo[1,2-a]pyrazine-2-carboxylic acid (3,4-dichloro-phenyl)-amide]",200 nM
2,"C[C@H]1C(=O)N2[C@@H](CCCN3CCC(F)(F)CC3)CC[C@H]2CN1C(=O)Nc1ccc(Cl)c(Cl)c1 [Example 46, (3S,6S,8aS)-6-[3-(4,4-Difluoro-piperidin-1-yl)-propyl]-3-methyl-4-oxo-hexahydro-pyrrolo[1,2-a]pyrazine-2-carboxylic acid (3,4-dichloro-phenyl)-amide]",26.4 nM
3,"C[C@H]1C(=O)N2[C@@H](CCCN3CCCC(F)(F)C3)CC[C@H]2CN1C(=O)Nc1ccc(Cl)c(Cl)c1 [Example 47, (3S,6S,8aS)-6-[3-(3,3-Difluoro-piperidin-1-yl)-propyl]-3-methyl-4-oxo-hexahydro-pyrrolo[1,2-a]pyrazine-2-carboxylic acid (3,4-dichloro-phenyl)-amide]",67.4 nM
4,"O=C(Nc1ccc(Cl)c(Cl)c1)N1CCC(=O)N2[C@@H](CCN3CCC4(CC4)[C@H](O)C3)CC[C@H]2C1 [Example 49, (7R,9aS)-7-[2-((S)-4-Hydroxy-6-aza-spiro[2.5]oct-6-yl)-ethyl]-5-oxo-hexahydro-pyrrolo[1,2-a][1,4]diazepine-2-carboxylic acid (3,4-dichloro-phenyl)-amide]",144 nM
5,"C[C@H]1C(=O)N2[C@@H](CCC(=O)N3CCC4(CC4)[C@H](O)C3)COC[C@H]2CN1C(=O)Nc1ccc(Cl)c(Cl)c1 [Example 51, (4S,7S,9aR)-4-[3-((S)-4-Hydroxy-6-aza-spiro[2.5]oct-6-yl)-3-oxo-propyl]-7-methyl-6-oxo-hexahydro-pyrazino[2,1-c][1,4]oxazine-8-carboxylic acid (3,4-dichloro-phenyl)-amide]",86.9 nM
6,"C[C@H]1C(=O)N2[C@@H](CCC(=O)N3CCC4(CC4)[C@H](O)C3)COC[C@H]2CN1C(=O)Nc1ccc(C(F)(F)F)c(Cl)c1 [Example 52, (4S,7S,9aR)—N-(3-chloro-4-(trifluoromethyl)phenyl)-4-(3-((S)-4-hydroxy-6-azaspiro[2.5]octan-6-yl)-3-oxopropyl)-7-methyl-6-oxohexahydropyrazino[2,1-c][1,4]oxazine-8(1H)-carboxamide]",14.7 nM
7,"C[C@H]1C(=O)N2[C@@H](CCN3CCC4(CC4)C(F)(F)C3)COC[C@H]2CN1C(=O)Nc1ccc(Cl)c(Cl)c1 [Example 53, (4S,7S,9aR)—N-(3,4-dichlorophenyl)-4-(2-(4,4-difluoro-6-azaspiro[2.5]octan-6-yl)ethyl)-7-methyl-6-oxohexahydropyrazino[2,1-c][1,4]oxazine-8(1H)-carboxamide]",16.7 nM
8,"C[C@H]1C(=O)N2[C@@H](CCN3CCC4(CC4)C(F)(F)C3)COC[C@H]2CN1C(=O)Nc1cccc(Cl)c1 [Example 54, (4S,7S,9aR)—N-(3-chlorophenyl)-4-(2-(4,4-difluoro-6-azaspiro[2.5]octan-6-yl)ethyl)-7-methyl-6-oxohexahydropyrazino[2,1-c][1,4]oxazine-8(1H)-carboxamide]",170 nM
9,"C[C@H]1C(=O)N2[C@@H](CCN3CCC4(CC4)C(F)(F)C3)COC[C@H]2CN1C(=O)Nc1ccc(C(F)(F)F)c(Cl)c1 [Example 55, (4S,7S,9aR)—N-(3-chloro-4-(trifluoromethyl)phenyl)-4-(2-(4,4-difluoro-6-azaspiro[2.5]octan-6-yl)ethyl)-7-methyl-6-oxohexahydropyrazino[2,1-c][1,4]oxazine-8(1H)-carboxamide]",34.3 nM
10,"C[C@H]1C(=O)N2[C@@H](CCN3CCC(F)(F)CC3)COC[C@H]2CN1C(=O)Nc1ccc(Cl)c(Cl)c1 [Example 56, (4S,7S,9aR)—N-(3,4-dichlorophenyl)-4-(2-(4,4-difluoropiperidin-1-yl)ethyl)-7-methyl-6-oxohexahydropyrazino[2,1-c][1,4]oxazine-8(1H)-carboxamide]",81 nM
11,"C[C@H]1C(=O)N2[C@@H](CCN3CCC(F)(F)CC3)COC[C@H]2CN1C(=O)Nc1ccc(C(F)(F)F)c(Cl)c1 [Example 57, (4S,7S,9aR)—N-(3-chloro-4-(trifluoromethyl)phenyl)-4-(2-(4,4-difluoropiperidin-1-yl)ethyl)-7-methyl-6-oxohexahydropyrazino[2,1-c][1,4]oxazine-8(1H)-carboxamide]",119 nM

# The next lines start with the values.
row,IC50,Structure (SMILES)
1,414 nM,"C[C@H]1C(=O)N2[C@@H](CCN3CCS(=O)(=O)CC3)COC[C@H]2CN1C(=O)Nc1ccc(Cl)c(Cl)c1 [Example 58, (4S,7S,9aR)-4-[2-(1,1-Dioxo-thiomorpholin-4-yl)-ethyl]-7-methyl-6-oxo-hexahydro-pyrazino[2,1-c][1,4]oxazine-8-carboxylic acid (3,4-dichloro-phenyl)-amide]"
2,189 nM,"C[C@H]1C(=O)N2[C@@H](CCN3CCS(=O)(=O)CC3)COC[C@H]2CN1C(=O)Nc1ccc(C(F)(F)F)c(Cl)c1 [Example 59, (4S,7S,9aR)-4-[2-(1,1-Dioxo-6-thiomorpholin-4-yl)-ethyl]-7-methyl-6-oxo-hexahydro-pyrazino[2,1-c][1,4]oxazine-8-carboxylic acid (3-chloro-4-trifluoromethyl-phenyl)-amide]"
3,48.2 nM,"C[C@H]1C(=O)N2[C@@H](CCCN3CCC4(CC4)C(F)(F)C3)COC[C@H]2CN1C(=O)Nc1ccc(Cl)c(Cl)c1 [Example 60, (4S,7S,9aR)—N-(3,4-dichlorophenyl)-4-(3-(4,4-difluoro-6-azaspiro[2.5]octan-6-yl)propyl)-7-methyl-6-oxohexahydropyrazino[2,1-c][1,4]oxazine-8(1H)-carboxamide]"
4,34.1 nM,"C[C@H]1C(=O)N2[C@@H](CCCN3CCC4(CC4)C(F)(F)C3)COC[C@H]2CN1C(=O)Nc1ccc(C(F)(F)F)c(Cl)c1 [Example 61, (4S,7S,9aR)—N-(3-chloro-4-(trifluoromethyl)phenyl)-4-(3-(4,4-difluoro-6-azaspiro[2.5]octan-6-yl)propyl)-7-methyl-6-oxohexahydropyrazino[2,1-c][1,4]oxazine-8(1H)-carboxamide]"
5,220 nM,"C[C@H]1C(=O)N2[C@@H](CCC(=O)N3CCC4(CC4)[C@H](O)C3)CCC[C@H]2CN1C(=O)/C=C/c1ccc(F)c(Cl)c1 [Example 62, (3S,6R,9aS)-2-[(E)-3-(3-Chloro-4-fluoro-phenyl)-acryloyl]-6-[3-((S)-4-hydroxy-6-aza-spiro[2.5]oct-6-yl)-3-oxo-propyl]-3-methyl-octahydro-pyrido[1,2-a]pyrazin-4-one]"
6,10.8 nM,"C[C@H]1C(=O)N2[C@@H](CCC(=O)N3CCC4(CC4)[C@H](O)C3)CCC[C@H]2CN1C(=O)Nc1ccc(Cl)c(Cl)c1 [Example 63, (3S,6R,9aS)-6-[3-((S)-4-Hydroxy-6-aza-spiro[2.5]oct-6-yl)-3-oxo-propyl]-3-methyl-4-oxo-octahydro-pyrido[1,2-a]pyrazine-2-carboxylic acid (3,4-dichloro-phenyl)-amide]"
7,14.3 nM,"C[C@H]1C(=O)N2[C@@H](CCC(=O)N3CCC4(CC4)[C@H](O)C3)CCC[C@H]2CN1C(=O)Nc1ccc(C(F)(F)F)c(Cl)c1 [Example 64, (3S,6R,9aS)-6-[3-((S)-4-Hydroxy-6-aza-spiro[2.5]oct-6-yl)-3-oxo-propyl]-3-methyl-4-oxo-octahydro-pyrido[1,2-a]pyrazine-2-carboxylic acid (3-chloro-4-trifluoromethyl-phenyl)-amide]"
8,2.2 nM,"C[C@H]1C(=O)N2[C@@H](CCN3CCC4(CC4)[C@H](O)C3)CCC[C@H]2CN1C(=O)Nc1ccc(Cl)c(Cl)c1 [Example 65, (3S,6R,9aS)-6-[2-((S)-4-Hydroxy-6-aza-spiro[2.5]oct-6-yl)-ethyl]-3-methyl-4-oxo-octahydro-pyrido[1,2-a]pyrazine-2-carboxylic acid (3,4-dichloro-phenyl)-amide]"
9,3 nM,"C[C@H]1C(=O)N2[C@@H](CCN3CCC4(CC4)[C@H](O)C3)CCC[C@H]2CN1C(=O)Nc1cccc(Cl)c1 [Example 66, (3S,6R,9aS)-6-[2-((S)-4-Hydroxy-6-aza-spiro[2.5]oct-6-yl)-ethyl]-3-methyl-4-oxo-octahydro-pyrido[1,2-a]pyrazine-2-carboxylic acid (3-chloro-phenyl)-amide]"
10,7.9 nM,"C[C@H]1C(=O)N2[C@@H](CCN3CCC4(CC4)[C@H](O)C3)CCC[C@H]2CN1C(=O)Nc1cccc(F)c1 [Example 67, (3S,6R,9aS)-6-[2-((S)-4-Hydroxy-6-aza-spiro[2.5]oct-6-yl)-ethyl]-3-methyl-4-oxo-octahydro-pyrido[1,2-a]pyrazine-2-carboxylic acid (3-fluoro-phenyl)-amide]"
